Results taken from US20080009532A1, “Antimicrobially Finished Solid Preparations” (priority 2005, published 2008).

System: mixture of bacterial species: Pseudomonas aeruginosa, Pseudomonas fluorescens, Pseudomonas oleovorans, Pseudomonas rubescens, Pseudomonas stutzeri, Alcaligenes …
Experiment: Microbiological stress test (preservation stress test) in calcium carbonate slurry
Format: cell-based
Conditions: calcium carbonate slurry (solids 70-75%), 3 days 60° C. pre-stress, weekly contamination
Protocol: Microbiological Stress Test The microbiological stress test examines the susceptibility of water-based systems to microbial attack and the efficacy of preservatives. To this end, defined concentrations of the preservatives are incorporated into the water-based systems. To simulate reality-like conditions, depending on the medium to be examined, the sample may be stored at elevated temperatures (for example for 7 days at 40° C., for 3 days at 60° C. or the like) prior to carrying out the actual preservation test, in order to evaluate the preservatives to be tested under conditions which are as realistic as possible. After the preliminary work has been concluded, there is, at weekly intervals, a contamination with microorganisms of a defined type over a test period of at most 6 weeks. 2-3 and 7 days after each contamination it is established by germ number determination, whether there has been a complete kill or at least an inhibition of proliferation of the microorganisms introduced, compared to the non-preserved control samples. On account of the microorganism populations known to predominate in mineral suspensions and dispersions, for the experiment, a mixture of the following bacterial species was used for the test: Pseudomonas aeruginosa Pseudomonas fluorescens Pseudomonas oleovorans Pseudomonas rubescens Pseudomonas stutzeri Alcaligenes faecalis Citrobacter freundii Corynebacterium sp. Very good efficacy is achieved when the preserved samples effect a kill of the microorganisms introduced even after 6 contamination cycles. […] Using a calcium carbonate slurry (solids content 70-75%), a preservation stress test was carried out in accordance with the above scheme. After incorporation of the respective biocide products at the stated concentrations, the samples were exposed to thermal stress at 60° C. for 3 days in order to identify unstable active compound components in the biocide products even at this phase of the experiment by subsequent loss of activity.

O=c1[nH]sc2ccccc12 [benzisothiazolinone, 1,2-benzisothiazolin-3-one]
Preservation state Week 1 (100 ppm): ok | Preservation state Week 2 (100 ppm): spoilt | Preservation state Week 3 (100 ppm): spoilt | Preservation state Week 4 (100 ppm): spoilt | Preservation state Week 5 (100 ppm): spoilt | Preservation state Week 6 (100 ppm): spoilt | Preservation state Week 1 (150 ppm): ok | Preservation state Week 2 (150 ppm): ok | Preservation state Week 3 (150 ppm): spoilt | Preservation state Week 4 (150 ppm): spoilt | Preservation state Week 5 (150 ppm): spoilt | Preservation state Week 6 (150 ppm): spoilt | Preservation state Week 1 (200 ppm): ok | Preservation state Week 2 (200 ppm): ok | Preservation state Week 3 (200 ppm): ok | Preservation state Week 4 (200 ppm): spoilt | Preservation state Week 5 (200 ppm): spoilt | Preservation state Week 6 (200 ppm): spoilt
